Reference: patent US10004738B2, “Combination treatment comprising administration of 2-amino-3,5,5-trifluoro-3,4,5,6-tetrahydropyridines” (H. Lundbeck A/S, priority 2015, dated 2018)
Where a name gives a salt, the structure may show the parent alone.

Biological target: BACE1 enzyme (Homo sapiens (Human), UniProt P56817)
Assay: BACE1 efficacy assay (FRET-based, commercial BACE1 kit)
Format: biochemical
Details: test compound 10 μM, 3 nM enzyme, 250 nM substrate
Procedure: The efficacy assay was performed as a FRET-based assay using a commercially available BACE1 kit (Life Technologies, P2985). 2 μl test compound at 10 μM (final concentration) and 15 μl BACE1 enzyme from the kit (final concentration 3 nM) were preincubated for 15 minutes at room temperature before addition of 15 μl of substrate from the kit (250 nM final concentration) and incubated for additional 90 minutes at room temperature. The assay plate was subsequently read in a Pherastar (Ex540/Em590). […] The efficacy of the test compounds was evaluated at 10 μM (final concentration) and defined as the percent inhibition of the enzyme activity using the equation % inhibition=100%−normalized enzyme activity in percent.

Chain of BACE1 enzyme (P56817 46-501): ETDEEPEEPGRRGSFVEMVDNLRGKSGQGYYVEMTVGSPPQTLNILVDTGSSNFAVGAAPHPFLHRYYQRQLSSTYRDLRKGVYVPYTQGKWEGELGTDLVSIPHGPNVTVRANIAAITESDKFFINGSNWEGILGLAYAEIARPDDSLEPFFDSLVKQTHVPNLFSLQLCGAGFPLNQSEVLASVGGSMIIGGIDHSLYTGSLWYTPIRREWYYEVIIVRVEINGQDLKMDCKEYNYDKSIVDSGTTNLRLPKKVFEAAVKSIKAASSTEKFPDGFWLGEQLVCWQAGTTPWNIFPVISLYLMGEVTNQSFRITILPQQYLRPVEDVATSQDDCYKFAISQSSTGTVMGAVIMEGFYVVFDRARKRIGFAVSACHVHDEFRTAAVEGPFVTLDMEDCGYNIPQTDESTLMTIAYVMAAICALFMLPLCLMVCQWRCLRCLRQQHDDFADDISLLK

Structure (SMILES) | inhibition at 10 µM
C[C@@]1(F)CC(F)(F)[C@@](C)(c2cc(NC(=O)c3ccc(Cl)cc3)ccc2F)N=C1N [Compound 44, N-(3-((2R,5R)-6-amino-3,3,5-trifluoro-2,5-dimethyl-2,3,4,5-tetrahydropyridin-2-yl)-4-fluorophenyl)-4-chlorobenzamide] | 92%
[2H]C([2H])([2H])Oc1ccc(C(=O)Nc2ccc(F)c([C@@]3(C)N=C(N)[C@](C)(F)CC3(F)F)c2)nc1 [Compound 43, N-(3-((2R,5R)-6-amino-3,3,5-trifluoro-2,5-dimethyl-2,3,4,5-tetrahydropyridin-2-yl)-4-fluorophenyl)-5-(methoxy-d3)picolinamide] | 94%
Cc1csc(C(=O)Nc2ccc(F)c([C@@]3(C)N=C(N)[C@](C)(F)CC3(F)F)c2)n1 [Compound 27, N-(3-((2R,5R)-6-amino-3,3,5-trifluoro-2,5-dimethyl-2,3,4,5-tetrahydropyridin-2-yl)-4-fluorophenyl)-4-methylthiazole-2-carboxamide] | 98%
Cc1cn(C)c(C(=O)Nc2ccc(F)c([C@@]3(C)N=C(N)[C@](C)(F)CC3(F)F)c2)n1 [Compound 38, N-(3-((2R,5R)-6-amino-3,3,5-trifluoro-2,5-dimethyl-2,3,4,5-tetrahydropyridin-2-yl)-4-fluorophenyl)-1,4-dimethyl-1H-imidazole-2-carboxamide] | 98%
C[C@@]1(F)CC(F)(F)[C@@](C)(c2cc(NC(=O)c3nc(CF)co3)ccc2F)N=C1N [Compound 30, N-(3-((2R,5R)-6-amino-3,3,5-trifluoro-2,5-dimethyl-2,3,4,5-tetrahydropyridin-2-yl)-4-fluorophenyl)-4-(fluoromethyl)oxazole-2-carboxamide] | 103%
Cn1ccc(C(=O)Nc2ccc(F)c([C@@]3(C)N=C(N)[C@](C)(F)CC3(F)F)c2)n1 [Compound 39, N-(3-((2R,5R)-6-amino-3,3,5-trifluoro-2,5-dimethyl-2,3,4,5-tetrahydropyridin-2-yl)-4-fluorophenyl)-1-methyl-1H-pyrazole-3-carboxamide] | 74%
C[C@]1(F)CC(F)(F)[C@@](C)(c2cc(NC(=O)c3ccc(OC(F)F)cn3)ccc2F)N=C1N [Compound 45, N-(3-((2R,5S)-6-amino-3,3,5-trifluoro-2,5-dimethyl-2,3,4,5-tetrahydropyridin-2-yl)-4-fluorophenyl)-5-(difluoromethoxy)picolinamide] | 103%
Cc1nc(C(=O)Nc2ccc(F)c([C@@]3(C)N=C(N)[C@](C)(F)CC3(F)F)c2)no1 [Compound 35, N-(3-((2R,5R)-6-amino-3,3,5-trifluoro-2,5-dimethyl-2,3,4,5-tetrahydropyridin-2-yl)-4-fluorophenyl)-5-methyl-1,2,4-oxadiazole-3-carboxamide] | 100%
C[C@]1(F)CC(F)(F)[C@@](C)(c2cc(NC(=O)c3nccs3)ccc2F)N=C1N [Compound 8, N-(3-((2R,5S)-6-amino-3,3,5-trifluoro-2,5-dimethyl-2,3,4,5-tetrahydropyridin-2-yl)-4-fluorophenyl)thiazole-2-carboxamide] | 104%
C[C@]1(F)CC(F)(F)[C@@](C)(c2cc(NC(=O)c3ccc(C(F)(F)F)cn3)ccc2F)N=C1N [Compound 11, N-(3-((2R,5S)-6-amino-3,3,5-trifluoro-2,5-dimethyl-2,3,4,5-tetrahydropyridin-2-yl)-4-fluorophenyl)-5-(trifluoromethyl)picolinamide] | 99%
C[C@]1(F)CC(F)(F)[C@@](C)(c2cc(NC(=O)c3ccc(C#N)cn3)ccc2F)N=C1N [Compound 4, N-(3-((2R,5S)-6-amino-3,3,5-trifluoro-2,5-dimethyl-2,3,4,5-tetrahydropyridin-2-yl)-4-fluorophenyl)-5-cyanopicolinamide] | 99%
COc1cnc(C(=O)Nc2ccc(F)c([C@@]3(C)N=C(N)[C@@](C)(F)CC3(F)F)c2)c(F)c1 [Compound 46, N-(3-((2R,5S)-6-amino-3,3,5-trifluoro-2,5-dimethyl-2,3,4,5-tetrahydropyridin-2-yl)-4-fluorophenyl)-3-fluoro-5-methoxypicolinamide] | 101%
Cn1cnc(C(=O)Nc2ccc(F)c([C@@]3(C)N=C(N)[C@@](C)(F)CC3(F)F)c2)n1 [Compound 22, N-(3-((2R,5S)-6-amino-3,3,5-trifluoro-2,5-dimethyl-2,3,4,5-tetrahydropyridin-2-yl)-4-fluorophenyl)-1-methyl-1H-1,2,4-triazole-3-carboxamide] | 92%
COc1cnc(C(=O)Nc2ccc(F)c([C@@]3(C)N=C(N)[C@@](C)(F)CC3(F)F)c2)nc1 [Compound 12, N-(3-((2R,5S)-6-amino-3,3,5-trifluoro-2,5-dimethyl-2,3,4,5-tetrahydropyridin-2-yl)-4-fluorophenyl)-5-methoxpyrimidine-2-carboxamide] | 104%
Cc1ncc(C(=O)Nc2ccc(F)c([C@@]3(C)N=C(N)[C@](C)(F)CC3(F)F)c2)o1 [Compound 42, N-(3-((2R,5R)-6-amino-3,3,5-trifluoro-2,5-dimethyl-2,3,4,5-tetrahydropyridin-2-yl)-4-fluorophenyl)-2-methyloxazole-5-carboxamide trifluoroacetic acid salt] | 84%
Cn1cc(Br)nc1C(=O)Nc1ccc(F)c([C@@]2(C)N=C(N)[C@@](C)(F)CC2(F)F)c1 [Compound 9, N-(3-((2R,5S)-6-amino-3,3,5-trifluoro-2,5-dimethyl-2,3,4,5-tetrahydropyridin-2-yl)-4-fluorophenyl)-4-bromo-1-methyl-1H-imidazole-2-carboxamide] | 103%
C[C@@]1(F)CC(F)(F)[C@@](C)(c2cc(NC(=O)c3nccs3)ccc2F)N=C1N [Compound 36, N-(3-((2R,5R)-6-amino-3,3,5-trifluoro-2,5-dimethyl-2,3,4,5-tetrahydropyridin-2-yl)-4-fluorophenyl)thiazole-2-carboxamide] | 100%
C[C@]1(F)CC(F)(F)[C@@](C)(c2cc(NC(=O)c3nc(CF)co3)ccc2F)N=C1N [Compound 14, N-(3-((2R,5S)-6-amino-3,3,5-trifluoro-2,5-dimethyl-2,3,4,5-tetrahydropyridin-2-yl)-4-fluorophenyl)-4-(fluoromethyl)oxazole-2-carboxamide] | 102%

Second part, the compound after the results:

inhibition at 10 µM | Structure (SMILES)
101% | C[C@@]1(F)CC(F)(F)[C@@](C)(c2cc(NC(=O)c3ccc(C#N)cn3)ccc2F)N=C1N [Compound 32, N-(3-((2R,5R)-6-amino-3,3,5-trifluoro-2,5-dimethyl-2,3,4,5-tetrahydropyridin-2-yl)-4-fluorophenyl)-5-cyanopicolinamide]
100% | C[C@]1(F)CC(F)(F)[C@@](C)(c2cc(NC(=O)c3ccn(C(F)F)n3)ccc2F)N=C1N [Compound 6, N-(3-((2R,5S)-6-amino-3,3,5-trifluoro-2,5-dimethyl-2,3,4,5-tetrahydropyridin-2-yl)-4-fluorophenyl)-1-(difluoromethyl)-1H-pyrazole-3-carboxamide]
102% | C[C@@]1(F)CC(F)(F)[C@@](C)(c2cc(NC(=O)c3nc(CF)cs3)ccc2F)N=C1N [Compound 31, N-(3-((2R,5R)-6-amino-3,3,5-trifluoro-2,5-dimethyl-2,3,4,5-tetrahydropyridin-2-yl)-4-fluorophenyl)-4-(fluoromethyl)thiazole-2-carboxamide]
100% | Cc1nc(C(=O)Nc2ccc(F)c([C@@]3(C)N=C(N)[C@@](C)(F)CC3(F)F)c2)co1 [Compound 7, N-(3-((2R,5S)-6-amino-3,3,5-trifluoro-2,5-dimethyl-2,3,4,5-tetrahydropyridin-2-yl)-4-fluorophenyl)-2-methyloxazole-4-carboxamide]
102% | Cc1nc(C(=O)Nc2ccc(F)c([C@@]3(C)N=C(N)[C@@](C)(F)CC3(F)F)c2)c(C)o1 [Compound 47, N-(3-((2R,5S)-6-amino-3,3,5-trifluoro-2,5-dimethyl-2,3,4,5-tetrahydropyridin-2-yl)-4 fluorophenyl)-2,5-dimethyloxazole-4-carboxamide]
98% | COc1cnc(C(=O)Nc2ccc(F)c([C@@]3(C)N=C(N)[C@@](C)(F)CC3(F)F)c2)c(C)n1 [Compound 19, N-(3-((2R,5S)-6-amino-3,3,5-trifluoro-2,5-dimethyl-2,3,4,5-tetrahydropyridin-2-yl)-4-fluorophenyl)-5-methoxy-3-methylpyrazine-2-carboxamide]
102% | C[C@@]1(F)CC(F)(F)[C@@](C)(c2cc(NC(=O)c3ccn(C(F)F)n3)ccc2F)N=C1N [Compound 23, N-(3-((2R,5R)-6-amino-3,3,5-trifluoro-2,5-dimethyl-2,3,4,5-tetrahydropyridin-2-yl)-4-fluorophenyl)-1-(difluoromethyl)-1H-pyrazole-3-carboxamide]
102% | COc1cnc(C(=O)Nc2ccc(F)c([C@@]3(C)N=C(N)[C@](C)(F)CC3(F)F)c2)nc1 [Compound 26, N-(3-((2R,5R)-6-amino-3,3,5-trifluoro-2,5-dimethyl-2,3,4,5-tetrahydropyridin-2-yl)-4-fluorophenyl)-5-methoxypyrimidine-2-carboxamide]
101% | C[C@]1(F)CC(F)(F)[C@@](C)(c2cc(NC(=O)c3nc(CF)cs3)ccc2F)N=C1N [Compound 15, N-(3-((2R,5S)-6-amino-3,3,5-trifluoro-2,5-dimethyl-2,3,4,5-tetrahydropyridin-2-yl)-4-fluorophenyl)-4-(fluoromethyl)thiazole-2-carboxamide]
100% | C[C@@]1(F)CC(F)(F)[C@@](C)(c2cc(NC(=O)c3ccc(F)cn3)ccc2F)N=C1N [Compound 2, N-(3-((2R,5R)-6-amino-3,3,5-trifluoro-2,5-dimethyl-2,3,4,5-tetrahydropyridin-2-yl)-4-fluorophenyl)-5-fluoropicolinamide]
